Source: article PMC8611036, “An integrated method for optimized identification of effective natural inhibitors against SARS-CoV-2 3CLpro” (Scientific Reports, 2021)
Read-outs that look alike come from different tables or passages of the source.

Legend:
[1] = biological target: T1, SARS-CoV-2 3CLpro (Severe acute respiratory syndrome coronavirus 2, UniProt P0DTD1); assay: Surface plasmon resonance analysis (Biacore T200); type: binding
[2] = ref TCMSP database, cited from earlier work; for HBA: number of hydrogen-bond acceptors; for HBD: number of hydrogen-bond donors; for OB (%): oral bioavailability
[3] = tested on: SARS-CoV 3CLpro; settings: SARS-CoV 3CLpro inhibitors (training set), ref: per compound, cited from earlier work; for pIC50: from literature IC50; for IC50: literature values
[4] = biological target: T1, SARS-CoV-2 3CLpro; settings: SARS-CoV pIC50 multiplied by similarity index (SI), training set compounds
[5] = tested on: SARS-CoV 3CLpro; type: biochemical; settings: activity class by pIC50 threshold 6
[6] = SPR, 25 °C, 3CLpro-his captured on CM7 chip, read-out: KD

Compound: Cc1cc(O)c2c(=O)c3c(O)cc(O)c4c5c(O)cc(O)c6c(=O)c7c(O)cc(C)c8c1c2c(c34)c(c78)c65 [MOL002067]
- Kd [1]: 19.9 µM

Compound: O=c1cc(-c2ccc(O)cc2)oc2cc(O[C@@H]3O[C@H](CO)[C@@H](O)[C@H](O)[C@H]3O)cc(O)c12 [MOL000007, Cosmetin]
- HBA [2]: 10
- HBD [2]: 6
- OB (%) [2]: 9.68%
- BBB [2]: -2.26
- Caco-2 [2]: -1.08
- FASA- [2]: 0.32
- NRotB [2]: 4

Compound: O=c1c(O)c(-c2ccc(O)cc2)oc2cc(O)cc(O)c12 [MOL000422]
- Kd [1, 6]: 24.6 µM

Compound: cyanidol [MOL000002]
- HBA [2]: 6
- HBD [2]: 5
- OB (%) [2]: 1.36%
- BBB [2]: -0.51
- FASA- [2]: 0.34
- NRotB [2]: 1

Compound: O=C(/C=C/c1ccc(O)c(O)c1)O[C@@H]1C[C@@](OC(=O)/C=C/c2ccc(O)c(O)c2)(C(=O)O)C[C@@H](O)[C@@H]1O [MOL007326]
- Kd [1, 6]: 20.3 µM

Compound: C[C@@H]1O[C@@H](OC[C@H]2O[C@@H](OCCc3ccc(O)c(O)c3)[C@H](O)[C@@H](O)[C@@H]2OC(=O)/C=C/c2ccc(O)c(O)c2)[C@H](O)[C@H](O)[C@H]1O [MOL003331]
- Kd [1]: 1.21 µM

Compound: O=C(/C=C/c1ccc(O)c2c1[C@H](C(=O)O)[C@@H](c1ccc(O)c(O)c1)O2)O[C@H](Cc1ccc(O)c(O)c1)C(=O)O [MOL007113]
- Kd [1]: 15 µM

Compound: O=C(/C=C/c1ccc(O)c2c1[C@H](C(=O)O[C@H](Cc1ccc(O)c(O)c1)C(=O)O)[C@@H](c1ccc(O)c(O)c1)O2)O[C@H](Cc1ccc(O)c(O)c1)C(=O)O [MOL007060]
- Kd [1]: 64 µM

Compound: O=C(/C=C/c1ccc(O)c(O)c1)O[C@H]1[C@H](O)C[C@](O)(C(=O)O)C[C@H]1OC(=O)/C=C/c1ccc(O)c(O)c1 [MOL001878]
- Kd [1, 6]: 0.047 µM

Compound: Clc1ccc(C2C(n3ccnc3)C(c3ccc(Br)cc3)=NN2c2ccc(Cl)c(Cl)c2)cc1 (stereo not drawn) [CMP112]
- pIC50 [3]: 5.602
- IC50 [3]: 2.5 µM
- SI*pIC50 [4]: 5.754
- Inact.(<6)/Act.(>=6) [5]: Inact. (Inact.(<6))

Compound: O=c1cc(-c2ccc(O)c(O)c2)oc2cc(O)cc(O)c12 [MOL000006, luteolin]
- HBA [2]: 6
- HBD [2]: 4
- OB (%) [2]: 36.16%
- BBB [2]: -0.84
- Caco-2 [2]: 0.19
- FASA- [2]: 0.39
- HL [2]: 15.94
- NRotB [2]: 1

Compound: CN(C)c1ccc(C(=O)N[C@@H](Cc2ccccc2)C(=O)Nc2ccc([N+](=O)[O-])cc2Cl)cc1 [CMP119]
- pIC50 [3]: 7.222
- IC50 [3]: 0.06 µM
- SI*pIC50 [4]: 7.374
- Inact.(<6)/Act.(>=6) [5]: Act. (Act.(>=6))

Compound: O=c1cc(-c2ccc(O)cc2)oc2cc(O)cc(O)c12 [MOL000008, apigenin]
- HBA [2]: 5
- HBD [2]: 3
- OB (%) [2]: 23.06%
- BBB [2]: -0.61
- Caco-2 [2]: 0.43
- FASA- [2]: 0.41
- NRotB [2]: 1

Compound: O=c1c(O[C@@H]2O[C@H](CO)[C@@H](O)[C@H](O)[C@H]2O[C@@H]2O[C@H](CO)[C@@H](O)[C@H](O)[C@H]2O)c(-c2ccc(O)cc2)oc2cc(O)cc(O)c12 [MOL002761]
- Kd [1, 6]: 12.5 µM

Compound: COc1ccc(-c2cc(=O)c3c(O)cc(O)c(-c4cc(-c5cc(=O)c6c(O)cc(OC)cc6o5)ccc4OC)c3o2)cc1 [CMP155]
- pIC50 [3]: 4.416
- IC50 [3]: 38.4 µM
- SI*pIC50 [4]: 4.568
- Inact.(<6)/Act.(>=6) [5]: Inact. (Inact.(<6))

Compound: C[C@@H]1O[C@@H](OC[C@H]2O[C@@H](Oc3c(-c4ccc(O)cc4)oc4cc(O)cc(O)c4c3=O)[C@H](O)[C@@H](O)[C@@H]2O)[C@H](O)[C@H](O)[C@H]1O [MOL002693]
- Kd [1]: 3.63 µM

Compound: CC1=C(O)C(=O)C=C2C1=CC=C1[C@@]2(C)CC[C@@]2(C)[C@@H]3C[C@@H](C)C(=O)C[C@]3(C)CC[C@]12C [CMP126]
- pIC50 [3]: 5.004
- IC50 [3]: 9.91 µM
- SI*pIC50 [4]: 5.156
- Inact.(<6)/Act.(>=6) [5]: Inact. (Inact.(<6))

Compound: O=c1[nH]c2cc(Cl)cc(Cl)c2c(O)c1Sc1nnnn1-c1ccc(O)cc1 [CMP110]
- pIC50 [3]: 4.975
- IC50 [3]: 10.6 µM
- SI*pIC50 [4]: 5.127
- Inact.(<6)/Act.(>=6) [5]: Inact. (Inact.(<6))

Compound: O=C(Oc1ccc(S(=O)(=O)c2ccc(OC(=O)C(Cl)=C(Cl)Cl)cc2)cc1)C(Cl)=C(Cl)Cl [CMP137]
- pIC50 [3]: 6.046
- IC50 [3]: 0.9 µM
- SI*pIC50 [4]: 6.198
- Inact.(<6)/Act.(>=6) [5]: Act. (Act.(>=6))

Compound: O=C(Oc1cncc(Cl)c1)c1cc2ccccc2o1 [CMP169]
- pIC50 [3]: 6.77
- IC50 [3]: 0.17 µM
- SI*pIC50 [4]: 6.921
- Inact.(<6)/Act.(>=6) [5]: Act. (Act.(>=6))

Compound: O=C(Oc1cncc(Cl)c1)c1cc2ccccc2s1 [CMP140]
- pIC50 [3]: 7
- IC50 [3]: 0.1 µM
- SI*pIC50 [4]: 7.152
- Inact.(<6)/Act.(>=6) [5]: Act. (Act.(>=6))

Compound: O=C1Nc2ccc(S(=O)(=O)N3CCOCC3)cc2C1=O [CMP159]
- pIC50 [3]: 4.898
- IC50 [3]: 12.7 µM
- SI*pIC50 [4]: 5.05
- Inact.(<6)/Act.(>=6) [5]: Inact. (Inact.(<6))

Compound: O=C(Oc1cncc(Cl)c1)c1ccco1 [CMP158]
- pIC50 [3]: 7.222
- IC50 [3]: 0.06 µM
- SI*pIC50 [4]: 7.374
- Inact.(<6)/Act.(>=6) [5]: Act. (Act.(>=6))

Compound: O=C1C(=O)N(Cc2ccccc2)c2ccc(S(=O)(=O)N3CCOCC3)cc21 [CMP148]
- pIC50 [3]: 4.858
- IC50 [3]: 13.9 µM
- SI*pIC50 [4]: 5.01
- Inact.(<6)/Act.(>=6) [5]: Inact. (Inact.(<6))

Compound: O=[N+]([O-])c1ccc(S(=O)(=O)c2ccc(Cl)cc2)[n+]([O-])c1 [CMP121]
- pIC50 [3]: 4.824
- IC50 [3]: 15 µM
- SI*pIC50 [4]: 4.976
- Inact.(<6)/Act.(>=6) [5]: Inact. (Inact.(<6))

Compound: O=C1Nc2ccc(S(=O)(=O)N3CCCCC3)cc2C1=O [CMP145]
- pIC50 [3]: 5.352
- IC50 [3]: 4.45 µM
- SI*pIC50 [4]: 5.503
- Inact.(<6)/Act.(>=6) [5]: Inact. (Inact.(<6))

Compound: COc1cc(C[S+]([O-])c2nc3cccnc3s2)oc(=O)c1 (stereo not drawn) [CMP109]
- pIC50 [3]: 5.143
- IC50 [3]: 7.2 µM
- SI*pIC50 [4]: 5.294
- Inact.(<6)/Act.(>=6) [5]: Inact. (Inact.(<6))

Compound: CC1CCN(S(=O)(=O)c2ccc3c(c2)C(=O)C(=O)N3)CC1 [CMP146]
- pIC50 [3]: 5.928
- IC50 [3]: 1.18 µM
- SI*pIC50 [4]: 6.08
- Inact.(<6)/Act.(>=6) [5]: Inact. (Inact.(<6))

Compound: CC1(C)CC(=O)c2c(NCc3ccco3)sc(C#N)c2C1 [CMP142]
- pIC50 [3]: 4.796
- IC50 [3]: 16 µM
- SI*pIC50 [4]: 4.948
- Inact.(<6)/Act.(>=6) [5]: Inact. (Inact.(<6))

Compound: OC[C@@H](O)[C@@H](O)[C@H](O)[C@H](O)CO [MOL000003, MTL]
- HBA [2]: 6
- HBD [2]: 6
- OB (%) [2]: 17.73%
- BBB [2]: -4.07
- Caco-2 [2]: -1.58
- FASA- [2]: 0.18
- NRotB [2]: 5

Compound: CC(=O)c1ccccc1S(=O)(=O)c1ccccc1C(=O)O [CMP147]
- pIC50 [3]: 4.796
- IC50 [3]: 16 µM
- SI*pIC50 [4]: 4.948
- Inact.(<6)/Act.(>=6) [5]: Inact. (Inact.(<6))

Compound: COc1cc(C=NNC(=O)C(=Cc2ccccc2)NC(=O)c2ccccc2)cc(OC)c1O [CMP123]
- pIC50 [3]: 4.113
- IC50 [3]: 77.1 µM
- SI*pIC50 [4]: 4.265
- Inact.(<6)/Act.(>=6) [5]: Inact. (Inact.(<6))

Compound: O=C(CSc1ncnc2c1sc1nc(N3CCOCC3)c3c(c12)CCCC3)NCc1ccco1 [CMP134]
- pIC50 [3]: 4.0423
- IC50 [3]: 90.7 µM
- SI*pIC50 [4]: 4.194
- Inact.(<6)/Act.(>=6) [5]: Inact. (Inact.(<6))

Compound: COc1ccc(N2C(=O)NC(=O)/C(=C\c3cc(Cl)c(OCc4cccc(C(=O)O)c4)c(Cl)c3)C2=O)cc1 [CMP103]
- pIC50 [3]: 5.164
- IC50 [3]: 6.86 µM
- SI*pIC50 [4]: 5.315
- Inact.(<6)/Act.(>=6) [5]: Inact. (Inact.(<6))

Compound: COc1ccc(C(c2c(O)c3cc(C)ccc3oc2=O)c2c(O)c3cc(C)ccc3oc2=O)cc1 [CMP105]
- pIC50 [3]: 5.02
- IC50 [3]: 9.56 µM
- SI*pIC50 [4]: 5.171
- Inact.(<6)/Act.(>=6) [5]: Inact. (Inact.(<6))

Compound: O=C(Oc1cncc(Cl)c1)c1cc2ccccc2[nH]1 [CMP170]
- pIC50 [3]: 7.1549
- IC50 [3]: 0.07 µM
- SI*pIC50 [4]: 7.307
- Inact.(<6)/Act.(>=6) [5]: Act. (Act.(>=6))

Compound: CCOC(=O)/C=C/[C@H](C[C@@H]1CCNC1=O)NC(=O)[C@H](CC(C)C)NC(=O)[C@@H](NC(=O)[C@H](CO)NC(=O)OC(C)(C)C)C(C)C [CMP179]
- pIC50 [3]: 5
- IC50 [3]: 10 µM
- SI*pIC50 [4]: 5.152
- Inact.(<6)/Act.(>=6) [5]: Inact. (Inact.(<6))

Compound: O=C(Oc1cncc(Cl)c1)c1cccc2ccccc12 [CMP168]
- pIC50 [3]: 6.921
- IC50 [3]: 0.12 µM
- SI*pIC50 [4]: 7.073
- Inact.(<6)/Act.(>=6) [5]: Act. (Act.(>=6))

Compound: CSc1[nH]nc(NC(=O)c2cccs2)c1S(=O)(=O)c1ccccc1 [CMP177]
- pIC50 [3]: 4.824
- IC50 [3]: 15 µM
- SI*pIC50 [4]: 4.976
- Inact.(<6)/Act.(>=6) [5]: Inact. (Inact.(<6))

Compound: O=C(Cc1nccs1)c1nccs1 [CMP178]
- pIC50 [3]: 4.398
- IC50 [3]: 40 µM
- SI*pIC50 [4]: 4.55
- Inact.(<6)/Act.(>=6) [5]: Inact. (Inact.(<6))

Compound: Nc1nc(CSc2nnc(-c3cccc4ccccc34)n2-c2ccccc2)cs1 [CMP135]
- pIC50 [3]: 4.234
- IC50 [3]: 58.3 µM
- SI*pIC50 [4]: 4.386
- Inact.(<6)/Act.(>=6) [5]: Inact. (Inact.(<6))

Compound: CCOC(=O)C(C#N)=CNc1ccc(S(=O)(=O)c2ccc(NC=C(C#N)C(=O)OCC)cc2)cc1 [CMP122]
- pIC50 [3]: 4.796
- IC50 [3]: 16 µM
- SI*pIC50 [4]: 4.948
- Inact.(<6)/Act.(>=6) [5]: Inact. (Inact.(<6))
